Tests used:
A2780 cells = assay: Cell Viability Assay (ATPlite 1step), A2780; assay type: cell-based; conditions: Homo sapiens, 72 hours; for percent inhibition of cell viability at 4 µM: A2780, 4 uM compound, read-out: Cell Viability % inhibition A2780 (4 uM Cpd); for percent inhibition of cell viability at 20 µM: A2780, 20 uM compound, read-out: Cell Viability % inhibition A2780 (20 uM Cpd)
How it was run: (§1)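 Cells seeded at 1000/well, grown 24 h at 37 °C/5% CO2, then exposed to compounds (DMSO stock diluted in media) for 72 h; viability read by ATPlite 1step luminescence. A2780 and PC3 in RPMI, MCF-7 in K-12F, each with 10% FBS.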

porcine neuronal tubulin = assay: Tubulin Polymerization Assay; assay type: biochemical; conditions: porcine tubulin 2.0 mg/ml, 37° C., fluorescence; read-out: IC50 (tubulin polymerization, from Vmax)
Source text: Tubulin Polymerization Assay
The Tubulin Polymerization Assay uses porcine neuronal tubulin and measurements are based on fluorescence enhancement due to the incorporation of a fluorescent reporter into microtubules as polymerization occurs. The assay generates a polymerization curve representing the three phases of microtubule formation (nucleation, growth and equilibrium). IC50 values for tested compounds can be generated from the observed polymerization curves.
Procedure: All compounds dilutions (in DMSO) were prepared prior to the following steps. A Molecular Devices M2 plate reader was set to 37° C. Once the internal temperature of the plate reader reached 37° C. a 96 well plate (Corning Costar, at. #3686) was placed in the fluorimeter and allowed to warm to 37° C. for 30 minutes. A total of 10 mg of porcine tubulin was resuspended in […] of Polymerization Buffer [Buffer 1 (80 mM PIPES pH 6.9, 2.0 mM MgCl2, 0.5 mM EGTA, 1.0 mM GTP and 10 μM fluorescent reporter) supplemented with 20% glycerol] to generate a 2.0 mg/ml tubulin stock and this was kept on ice. The 50× compound stocks in 100% DMSO were spotted 1 μl/well in duplicate into the wells of the 96-well plate at 37° C. and allowed to re-warm for 5 minutes at 37° C. During this incubation the 2.0 mg/ml tubulin stock was placed in a disposable plastic trough and allowed to warm briefly at room temperature. To initiate the reaction, 50 μl/well of 2.0 mg/ml tubulin in Polymerization Buffer was added to each well using a multi-channel pipettor and the fluorescence measurements were started immediately.
The maximal velocity (Vmax) of tubulin polymerization was determined using linear regression of the averaged fluorescence data at each time point using GraphPad Prism 5.0 software. The Vmax determinations for each compound at each concentration were then normalized to reactions that contained DMSO (2% final concentration) but no test compounds. This converted the data to % Activity, which refers to the percent of the Vmax of an uninhibited reaction. The concentration response curves were then plotted as the % Activity versus the Log 10 of the compound concentration in micromolar and fit by non-linear regression to a 4-parameter sigmoidal dose-response equation using GraphPad Prism 5.0 software to determine the IC50 for each compound.

MCF-7 cells = assay: Cell Viability Assay (ATPlite 1step), MCF-7; assay type: cell-based; conditions: Homo sapiens, MCF7, 72 hours; for percent inhibition of cell viability at 4 µM: MCF-7, 4 uM compound, read-out: Cell Viability % inhibition MCF-7 (4 uM Cpd); for percent inhibition of cell viability at 20 µM: MCF-7, 20 uM compound, read-out: Cell Viability % inhibition MCF-7 (20 uM Cpd)
Method: Cell Viability Assay Protocol
Cells were trypsinized, counted, and re-seeded into a 384-well tissue culture plate at 1000 cells per well in […] media. Cells were incubated at 37° C. in an atmosphere of 5% CO2 for 24 hours. Experimental compounds, initially dissolved in DMSO and diluted further in media were added to the wells and incubated for 72 hours. Cell viability was measured using the ATPlite 1step Luminescence Detection Assay system (Perkin Elmer) as described in the Assay kit instructions.
Cell Culture Lines and Media: (1) A2780 cells were cultured in RPMI media with 10% FBS and 1% antibiotics. Cells were typically split every 3-5 days at a 1:10 dilution; (2) PC3 cells were cultured in RPMI media with 10% FBS and 1% antibiotics. Cells were typically split every 3-5 days at a 1:4 dilution; (3) MCF-7 cells were grown in K-12F media with 10% FBS and 1% antibiotics. Cells were typically split every 3-5 days at a 1:10 dilution.

PC3 cells = assay: Cell Viability Assay (ATPlite 1step), PC3; assay type: cell-based; conditions: Homo sapiens, PC-3, 72 hours; for percent inhibition of cell viability at 4 µM: PC3, 4 uM compound, read-out: Cell Viability % inhibition PC3 (4 uM Cpd); for percent inhibition of cell viability at 20 µM: PC3, 20 uM compound, read-out: Cell Viability % inhibition PC3 (20 uM Cpd)
How it was run: as §1

O=C(Nc1ccc(-c2ccccc2)cn1)c1cncnc1 [Compound 1]
percent inhibition of cell viability at 4 µM (A2780 cells): 84.2%
percent inhibition of cell viability at 20 µM (A2780 cells): 93.6%
IC50 (porcine neuronal tubulin): 1.4 µM
percent inhibition of cell viability at 4 µM (MCF-7 cells): 46.1%
percent inhibition of cell viability at 20 µM (MCF-7 cells): 68.4%
percent inhibition of cell viability at 4 µM (PC3 cells): 59.1%
percent inhibition of cell viability at 20 µM (PC3 cells): 72.2%

Cc1ncc(C(=O)Nc2ncc(-c3cccc(S(=O)(=O)C4CC4)c3)cc2F)cn1 [Compound 70, N-{5-[3-(cyclopropylsulfonyl)phenyl]-3-fluoropyridin-2-yl}-2-methylpyrimidine-5-carboxamide]
percent inhibition of cell viability at 4 µM (A2780 cells): 86.3%
percent inhibition of cell viability at 20 µM (A2780 cells): 87.8%
IC50 (porcine neuronal tubulin): 0.01 µM
percent inhibition of cell viability at 4 µM (MCF-7 cells): 61.1%
percent inhibition of cell viability at 20 µM (MCF-7 cells): 66.1%
percent inhibition of cell viability at 4 µM (PC3 cells): 58.4%
percent inhibition of cell viability at 20 µM (PC3 cells): 65%

Cc1ncc(C(=O)Nc2ncc(-c3cccc(C4CC4)c3)cc2F)cn1 [Compound 67, N-[5-(3-cyclopropylphenyl)-3-fluoropyridin-2-yl]-2-methylpyrimidine-5-carboxamide]
percent inhibition of cell viability at 4 µM (A2780 cells): 87.1%
percent inhibition of cell viability at 20 µM (A2780 cells): 87.9%
IC50 (porcine neuronal tubulin): 2.42 µM
percent inhibition of cell viability at 4 µM (MCF-7 cells): 60%
percent inhibition of cell viability at 20 µM (MCF-7 cells): 63.7%
percent inhibition of cell viability at 4 µM (PC3 cells): 56%
percent inhibition of cell viability at 20 µM (PC3 cells): 61.6%

Cc1ncc(C(=O)Nc2ccc(-c3cccc(S(=O)(=O)C4CC4)c3)c(C)n2)cn1 [Compound 64, N-{5-[3-(cyclopropylsulfonyl)phenyl]-6-methylpyridin-2-yl}-2-methylpyrimidine-5-carboxamide]
percent inhibition of cell viability at 4 µM (A2780 cells): 80%
percent inhibition of cell viability at 20 µM (A2780 cells): 81.5%
IC50 (porcine neuronal tubulin): 0.12 µM
percent inhibition of cell viability at 4 µM (MCF-7 cells): 73.5%
percent inhibition of cell viability at 20 µM (MCF-7 cells): 74.5%
percent inhibition of cell viability at 4 µM (PC3 cells): 59.4%
percent inhibition of cell viability at 20 µM (PC3 cells): 62.7%

O=C(Nc1ccc(-c2cccc(Cl)c2)cn1)c1cncnc1 [Compound 3, N-[5-(3-chlorophenyl)pyridin-2-yl]pyrimidine-5-carboxamide]
percent inhibition of cell viability at 4 µM (A2780 cells): 84.8%
percent inhibition of cell viability at 20 µM (A2780 cells): 90.2%
IC50 (porcine neuronal tubulin): 1.45 µM
percent inhibition of cell viability at 4 µM (MCF-7 cells): 50.6%
percent inhibition of cell viability at 20 µM (MCF-7 cells): 56.8%
percent inhibition of cell viability at 4 µM (PC3 cells): 60.9%
percent inhibition of cell viability at 20 µM (PC3 cells): 68.3%

Cc1ncc(C(=O)Nc2ncc(-c3cccc(OC4CC4)c3)cc2F)cn1 [Compound 66, N-{5-[3-(cyclopropyloxy)phenyl]-3-fluoropyridin-2-yl}-2-methylpyrimidine-5-carboxamide]
percent inhibition of cell viability at 4 µM (A2780 cells): 89%
percent inhibition of cell viability at 20 µM (A2780 cells): 88.4%
IC50 (porcine neuronal tubulin): 3.84 µM
percent inhibition of cell viability at 4 µM (MCF-7 cells): 75%
percent inhibition of cell viability at 20 µM (MCF-7 cells): 76%
percent inhibition of cell viability at 4 µM (PC3 cells): 66%
percent inhibition of cell viability at 20 µM (PC3 cells): 70.6%

Cc1ncc(C(=O)Nc2ccc(-c3cccc(S(=O)(=O)C4CC4)c3)cn2)cn1 [Compound 63, N-{5-[3-(cyclopropylsulfonyl)phenyl]pyridin-2-yl}-2-methylpyrimidine-5-carboxamide]
percent inhibition of cell viability at 4 µM (A2780 cells): 85.6%
percent inhibition of cell viability at 20 µM (A2780 cells): 88%
IC50 (porcine neuronal tubulin): 0.24 µM
percent inhibition of cell viability at 4 µM (MCF-7 cells): 59.1%
percent inhibition of cell viability at 20 µM (MCF-7 cells): 65.1%
percent inhibition of cell viability at 4 µM (PC3 cells): 61.4%
percent inhibition of cell viability at 20 µM (PC3 cells): 67.6%
